According to paper PMC3983391 (Journal of medicinal chemistry, 2014):
Entries after “also recorded” stand apart in the source; their conditions may differ.

Columns and labels:
[1] = test system: human tumor cell line (HTCL) panel (A549, KB, KBvin, DU145); assay: SRB antiproliferative activity, ranges over the HTCL panel; format: cell-based; settings: read-out: GI50 range over HTCL panel
[2] = test system: MCF7 tumor xenografts; assay: Nude mouse MCF7 xenograft antitumor assay; format: in vivo; settings: 4 mg/kg i.v. every 3 days; p < 0.05 from day 10 onward
[3] = Toxicity in the nude mouse MCF7 xenograft study; settings: nude mice; for death: dead/total
[4] = test system: A549 cells; assay: Cell cycle analysis by propidium iodide flow cytometry; format: cell-based, human; settings: A549, 24 h; 5f 3 nM, colchicine 300 nM
[5] = test system: A549 cells; assay: Immunocytochemistry of cellular microtubules; format: cell-based, human; settings: A549, 24 h; 5f 3 nM, paclitaxel 100 nM, colchicine 100 nM
[6] = data reported previously; cited from earlier work
[7] = test system: tubulin (vinblastine site); assay: Competitive inhibition assay, BODIPY FL-vinblastine binding to tubulin; set-up: species or system dog; settings: tubulin 4 μM, BODIPY FL-vinblastine 2 μM; even at 30–100 μM

Row | Structure (SMILES) | GI50 [1] [nM] | also measured
1 | COc1ccc2c(c1)N(C)C(=O)CN2c1nc(C)nc2ccccc12 [5g, 2-Methyl-4-(1-methyl-7-methoxy-2-oxo-3,4-dihydroquinox-alin-4-yl)quinazoline] | 17 to 25 | growth of MCF7 tumor xenografts (tumor volume vs control) [2]: significantly inhibited; body weight change (%) ([3]; 4 mg/kg i.v., Q3D × 6): +2.28%; death ([3]; 4 mg/kg i.v., Q3D × 6): 0/7
2 | COc1cc2c(c(OC)c1OC)-c1ccc(OC)c(=O)cc1[C@@H](NC(C)=O)CC2 [colchicine, reference compound] | – | effect on the cell cycle [4]: arrested at the G2/M phase; effect on cellular microtubule network [5]: microtubule network disappeared
3 | Cc1ccc2c(c1)CCCN2c1nc(C)nc2ccccc12 [4b, 2-Methyl-4-(N-(6-methyl-1,2,3,4-tetrahydroquinolinyl))-quinazoline] | 169 to 211 | –
4 | CC(=O)O[C@H]1C(=O)[C@@]2(C)[C@H]([C@H](OC(=O)c3ccccc3)[C@]3(O)C[C@H](OC(=O)[C@H](O)[C@@H](NC(=O)c4ccccc4)c4ccccc4)C(C)=C1C3(C)C)[C@]1(OC(C)=O)CO[C@@H]1C[C@@H]2O [paclitaxel] | – | effect on cellular microtubule network [5]: retained a spindle-shaped microtubule network
5 | Cc1ccc2c(c1)CCCN2c1nc(Cl)nc2ccccc12 [4a, 2-Chloro-4-(N-(6-methyl-3,4-dihydroquinolinyl))quinazoline] | 43 to 57 | –
6 | COc1ccc2c(c1)CCCN2c1nc(Cl)nc2ccccc12 [1a, 2-chloro-4-(6-methoxy-3,4-dihydroquinolin-1(2H)-yl)quinazoline] | – | death ([3]; 4 mg/kg i.v., Q3D × 6): 0/5
7 | Cc1nc(N2CCCc3cc(Br)ccc32)c2ccccc2n1 [4c, 4-(N-(6-Bromo-1,2,3,4-tetrahydroquinolinyl))-2-methylqui-nazoline] | 169 to 211 | –
8 | COc1ccc2c(c1)CCCN2c1nc(C)nc2ccccc12 [1b, 2-methyl-4-(6-methoxy-3,4-dihydroquinolin-1(2H)-yl)quinazoline] | – | human liver microsome t1/2 [6]: 25.2 min; death ([3]; 4 mg/kg i.v., Q3D × 6): 1/6
9 | COc1ccc2c(c1)NC(=O)CN2c1nc(C)nc2ccccc12 [5f, 2-Methyl-4-(7-methoxy-2-oxo-3,4-dihydroquinoxalin-4(1H)-yl)quinazoline] | 1.9 to 3.2 | effect on binding of BODIPY FL-vinblastine to tubulin [7]: did not significantly change; also recorded: did not compete; effect on the cell cycle [4]: arrested at the G2/M phase; effect on cellular microtubule network [5]: microtubule network disappeared; toxicity observation ([3]; 4 mg/kg i.v. every 3 days, 4 mg/kg): toxicity and death; also recorded: all seven mice died; also recorded: death of all treated mice; death ([3]; 4 mg/kg i.v., Q3D × 6): 7/7

Further lines, with some results ahead:

Row | GI50 [1] [nM] | Structure (SMILES) | also measured
10 | 153 to 211 | COc1ccc2c(c1)OCCN2c1nc(C)nc2ccccc12 [5e] | –
11 | 5450 to 19600 | COc1ccc2c(c1)CCCN(c1nc(C)nc3ccccc13)C2 [5m, 4-(N-(7-Methoxy-2,3,4,5-tetrahydro-1H-benzo[c]azepinyl))-2-methylquinazoline] | –
12 | 27 to 33 | COc1ccc2c(c1)C(=O)CCN2c1nc(Cl)nc2ccccc12 [5a, 2-Chloro-4-(N-(6-methoxy-2,3-dihydro-4-oxoquinolinyl))-quinazoline] | –
13 | 153 to 211 | COc1ccc2c(c1)OCCN2c1nc(Cl)nc2ccccc12 [5d, 2-Chloro-4-(N-(7-methoxy-3,4-dihydro-2H-benzo[b][1,4]-oxazinyl))quinazoline] | –
14 | 5450 to 19600 | COc1ccc2c(c1)CCCN(c1nc(Cl)nc3ccccc13)C2 [5l, 2-Chloro-4-(N-(7-methoxy-2,3,4,5-tetrahydro-1H-benzo[c]-azepinyl))quinazoline] | –
15 | 17 to 19 | COc1ccc2c(c1)C(O)CCN2c1nc(C)nc2ccccc12 (centres unmarked) [5c, 4-(N-(4-Hydroxy-6-methoxy-1,2,3,4-tetrahydroquinolinyl))-2-methylquinazoline] | –
16 | 170 to 320 | COc1ccc2c(c1)CCN2c1nc(Cl)nc2ccccc12 [5h, 2-Chloro-4-(N-(5-methoxy)indolinyl)quinazoline] | –
17 | 19 to 24 | COc1ccc2c(c1)C(=O)CCN2c1nc(C)nc2ccccc12 [5b, 4-(N-(6-Methoxy-2,3-dihydro-4-oxoquinolinyl))-2-methyl-quinazoline] | –
18 | 170 to 320 | COc1ccc2c(c1)CCN2c1nc(C)nc2ccccc12 [5i, 4-(N-(5-Methoxy)indolinyl)-2-methylquinazoline] | –
19 | 18 to 21 | COc1ccc2c(c1)CCCCN2c1nc(C)nc2ccccc12 [5k, 4-(N-(7-Methoxy-2,3,4,5-tetrahydro-1H-benzo[b]azepinyl))-2-methylquinazoline] | –
